The record followed here is US20260232768A1, “TREATMENT OF ATOPIC DERMATITIS WITH POLYETHYLENE GLYCOL-MODIFIED INTERLEUKIN 2, GLUCOCORTICOID AND HYALURONIC ACID” (priority 2023, published 2026).

In assay [1] the test system is CD25+FoxP3+ cells in spleen CD3+CD4+ lymphocytes and PD-1+ cells in CD3+CD4+CD25+FoxP3+ cells. Put plainly: Intraperitoneal injection in physiological model mice, spleen Treg and PD-1 by flow cytometry. The assay is classed as in vivo, BALB/c mice.
From the text: We intraperitoneally injected PEG-IL-2 modified with non-branched PEG of different molecular weight sizes in physiological model mice, and detected FoxP3+ regulatory T cells and the expression of PD-1 in spleen cells on day 4.
For assay [2], the system named is OVA induced atopic dermatitis (AD) mouse model. Put plainly: OVA induced atopic dermatitis (AD) mouse model, skin inflammation status scoring. Format: in vivo, BALB/c mice. The note with it: AD model mice, topical patch for 3 consecutive days; total score 0-12; 6 mice per group.
Method: 10 μg OVA was mixed with 2 mg of aluminum hydroxide in 200 μL of phosphate buffer (PBS) solution, intraperitoneally injected to sensitize mice, once every week (at day 0, 7 and 14), each mouse was injected 3 times, 200 μL each time. On day 14, mice were anesthetized using pentobarbital intraperitoneal injection. […] The OVA patch was prepared by wetting a 1.5×1.5 cm^2 sterile gauze in a solution of 1 mg/mL of OVA (dissolved in PBS) (approximately 100 μL of OVA solution), and was attached using a transparent dressing to the back skin after epilation and replaced daily for 3-7 days to develop dermatitis manifestation, and the status of the back skin of the mice was recorded photographically on day 4~5 after inducing mouse dermatitis (the dermatitis manifestation was most obvious), and the skin inflammation status was scored. […]
Skin inflammation status scores assess dermatitis severity clinically. The total score was 0 to 12, evaluated from four aspects, edema, erythema, scaling and erosion, respectively, an individual score was 0-3 (0, no; 1, mild; 2, moderate; 3, severe), and the final score was the sum of each individual term [SCHWARTZ C, et al. Spontaneous atopic dermatitis in mice with a defective skin barrier is independent of ILC2 and mediated by IL-1β.

Marks after values point to notes of the source that are not given here.

As to “normal IL-2: recombinant human interleukin 2 not modified with PEG, SEQ ID NO: 1, 15 kD”, the “up-regulation of FoxP3+ regulatory T cells in spleen (in words)” value in assay [1] (detected on day 4) is on record as “did not up-regulate Tregs”. In assay [1] (spleen, day 4), the “expression of PD-1 by regulatory T cells (in words)” value is “can promote the expression of PD-1”.
With `CCCC1O[C@@H]2C[C@H]3[C@@H]4CCC5=CC(=O)C=C[C@]5(C)[C@H]4[C@@H](O)C[C@]3(C)[C@]2(C(=O)CO)O1` (stereo partly drawn) [Budesonide alone, budesonide], the “Dermatitis score (χ ± s)” value in assay [2] was 2.333 ± 1.211*^.
